These are literature values, as cited in patent publication US11154586B2, “Treating sexual dysfunction” (Olive Therapeutics, LLC, priority 2016, dated 2021).

For data set [1] the following is noted: intranasal, men or couples, single agent.

In the case of `CC[C@H](C)[C@@H]1NC(=O)[C@H](Cc2ccc(O)cc2)NC(=O)[C@@H](N)CSSC[C@@H](C(=O)N2CCC[C@H]2C(=O)N[C@@H](CC(C)C)C(=O)NCC(N)=O)NC(=O)[C@H](CC(N)=O)NC(=O)[C@H](CCC(N)=O)NC1=O` [oxytocin], where the note is “person, 2 hours after intranasal 16 IU, on progesterone only pill, repeated 2 days later”, the “Effect on sexual function, Case 1” value was “increased sexual desire, stronger uterine contractions during orgasm, and greater satisfaction”. Moreover, the “Effect on sexual function, Case 2” value (person, intranasal, off-label for social anxiety, apparently also on lisdexamfetamine) is “broad spectrum enhancement of the patient's sexual function”. Under “person, intranasal, earlier dopamine agonist and growth hormone”, the “Effect on anorgasmia, Case 3” value is “sustained restoration of their ability to achieve orgasm”. Under “same person, 2 weeks later, after switch to barrier method”, the “Effect on sexual function, Case 1, third administration” value is “did not produce the same sexual enhancement”. Further, in data set [1], the “Effect on biological measures of sexual functioning” value is listed as “does not alter biological measures of sexual functioning”.
